Results from patent US8426405B2, “Thiazopyrimidinones and uses thereof” (priority 2008, dated 2013).

What was measured:
[1] = molecular target: T1, HIV integrase G140S/Q148H (Human immunodeficiency virus type 1 group M subtype B, UniProt P04585, G1287S/Q1295H); test: Strand transfer assay (enzyme assay), G140S/Q148H; assay type: biochemical, HIV-1
T1 construct: The integrase coding region was then subject to PCR and cloned into a bacterial expression vector; made in house
Text: (§1) HIV integrase was mutated within a shuttle vector (pGEM) containing the majority of the HIV-1 gag and pol sequence using site directed mutagenesis to generate integrase sequences that have been published as conferring resistance to published integrase inhibitors. These include, but are not limited to, mutations such as Q148K. The integrase coding region was then subject to PCR and cloned into a bacterial expression vector. The specific introduction of desired mutation(s) was confirmed by sequence analysis. Proteins were expressed, purified and used in strand transfer assays.
(§2) A strand transfer assay procedure similar to that published (Ovenden et al. Phytochemistry. 2004 December; 65(24):3255-9.) is used. Briefly, 400 ng of the enzyme, wild type or drug resistant mutant, is mixed with the compound to be tested and incubated with 30 nM substrate DNA. The substrate DNA is designed to mimic HIV DNA termini that has undergone 3′end processing, and consists of the annealed U5 LTR sequence oligonucleotides tagged with Digoxigenin (DIG; 5′-[…]-DIG-3′) or biotin (5′-Bio-[…]-3′) so that each substrate has either a DIG or Bio tag on opposite strands. Reactions are carried out for 1 hr at 37° C. Products generated as a result of strand transfer activity are bound to streptavidin plates and detected using anti-DIG-alkaline phosphatase conjugate and p-nitro phenyl phosphate substrate.

HIV integrase E92Q/N155H = molecular target: T2, HIV integrase E92Q/N155H (Human immunodeficiency virus type 1 group M subtype B, UniProt P04585, E1239Q/N1302H); test: Strand transfer assay (enzyme assay), E92Q/N155H; assay type: biochemical, HIV-1
T2 construct: The integrase coding region was then subject to PCR and cloned into a bacterial expression vector; made in house
Text: as §1, §2

HIV integrase wild type = molecular target: T3, HIV integrase wild type (Human immunodeficiency virus type 1 group M subtype B, UniProt P04585); test: Strand transfer assay (enzyme assay), WT; assay type: biochemical, HIV-1
T3 construct: The integrase coding region was then subject to PCR and cloned into a bacterial expression vector; made in house
Text: as §1, §2

[2] = test system: HIV variant T125K F121Y in integrase; test: Phenosense (PhenoScreen) assay, T125K F121Y; assay type: cell-based
Text: (§3) Monogram Bioscience' PhenoScreen assay allows the evaluation of integrase inhibitors for activity against a variety of HIV variants. The assay uses virus generated from 2 DNA constructs; one containing the HIV LTR, gag and pol regions, as well as a luciferase reporter gene in place of the viral envelope genes, and a second DNA construct containing the amphotrophic murine leukemia virus (A-MLV) envelope gene required to pseudotype virions and render them capable of entry into a target cell. Viruses generated using these constructs by transfection into a producer cell line such as 293T are capable of one-round of infection only. Successful integration events are directly proportional to the levels of luciferase expression 48 h after infection.
(§4) The viral variants chosen by Avexa Ltd to screen their in-house integration inhibitors against consist of mutations within the viral integrase enzyme known to confer resistance to a number of known integration inhibitors published in the literature. In particular, the viral variants containing the Q148H/G140S double mutation in integrase, and the N155H/E92Q double mutation in integrase, represent two of the more common viruses identified to arise in patients that are failing treatment with Isentress (Raltegravir, MK-0518).

[3] = test system: HIV variant N155H/E92Q double mutation in integrase; test: Phenosense (PhenoScreen) assay, E92Q N155H; assay type: cell-based
Text: as §3, §4

[4] = test system: HIV variant Q148H/G140S double mutation in integrase; test: Phenosense (PhenoScreen) assay, G140S Q148H; assay type: cell-based
Text: as §3, §4

[5] = test system: HIV variant Y143R in integrase; test: Phenosense (PhenoScreen) assay, Y143R; assay type: cell-based
Text: as §3, §4

HIV WT = test: Phenosense (PhenoScreen) assay, WT; assay type: cell-based; settings: wild type HIV, luciferase 48 h after infection
Text: as §3, §4

[6] = test system: HIV variant T661 S153Y in integrase; test: Phenosense (PhenoScreen) assay, T661 S153Y; assay type: cell-based
Text: as §3, §4

Row | SMILES | Enzyme G140S/Q148H [1] | Enzyme E92Q/N155H (HIV integrase E92Q/N155H) | Enzyme WT (HIV integrase wild type) | Phenosense assay T125K F121Y [2] | Phenosense assay E92Q N155H [3] | Phenosense assay G140S Q148H [4] | Phenosense assay Y143R [5] | Phenosense assay WT (HIV WT) | Phenosense assay T661 S153Y [6]
1 | Cc1cn2c(=O)c(O)c(-c3ncc(Cc4ccc(Cl)c(Cl)c4)s3)nc2s1 | +++ (+++ indicates value between 0.001 μM and 1 μM) | ++ (++ indicates value between 1 μM and 10 μM) | +++ (+++ indicates value between 0.001 μM and 1 μM) |  |  |  |  |  | 
2 | Cc1cn2c(=O)c(O)c(-c3ncc(Cc4ccc(F)c(Cl)c4)s3)nc2s1 | ++ (++ indicates value between 1 μM and 10 μM) | ++ (++ indicates value between 1 μM and 10 μM) | +++ (+++ indicates value between 0.001 μM and 1 μM) |  |  |  |  |  | 
3 | Cc1cn2c(=O)c(O)c(-c3ncc(Cc4ccc(F)cc4)s3)nc2s1 |  | +++ (+++ indicates value between 0.001 μM and 1 μM) |  |  |  |  |  |  | 
4 | Cc1cn2c(=O)c(O)c(-c3ncc(Cc4ccc(Cl)cc4)s3)nc2s1 | + (+indicates value greater than 10 μM) | ++ (++ indicates value between 1 μM and 10 μM) | +++ (+++ indicates value between 0.001 μM and 1 μM) |  |  |  |  |  | 
5 | Cc1cn2c(=O)c(O)c(C(=O)NCc3ccc(Cl)c(Cl)c3)nc2s1 |  |  | +++ (+++ indicates value between 0.001 μM and 1 μM) |  |  |  |  |  | 
6 | Cc1cn2c(=O)c(O)c(C(=O)NCc3ccc(F)cc3)nc2s1 |  |  | ++ (++ indicates value between 1 μM and 10 μM) |  |  |  |  |  | 
7 | CN1CCN(Cc2cn3c(=O)c(O)c(C(=O)NCc4ccc(Cl)c(Cl)c4)nc3s2)CC1 |  |  | +++ (+++ indicates value between 0.001 μM and 1 μM) | + (+indicates value greater than 10 μM) | + (+indicates value greater than 10 μM) | + (+indicates value greater than 10 μM) | +++ (+++ indicates value between 0.001 μM and 1 μM) | +++ (+++ indicates value between 0.001 μM and 1 μM) | ++ (++ indicates value between 1 μM and 10 μM)
8 | O=C(NCc1ccc(Cl)c(Cl)c1)c1nc2sc(CN3CCOCC3)cn2c(=O)c1O |  |  | +++ (+++ indicates value between 0.001 μM and 1 μM) | + (+indicates value greater than 10 μM) | + (+indicates value greater than 10 μM) | + (+indicates value greater than 10 μM) | +++ (+++ indicates value between 0.001 μM and 1 μM) | +++ (+++ indicates value between 0.001 μM and 1 μM) | + (+indicates value greater than 10 μM)
9 | O=C(NCc1ccc(F)cc1)c1nc2sc(CN3CCOCC3)cn2c(=O)c1O |  |  | ++ (++ indicates value between 1 μM and 10 μM) | + (+indicates value greater than 10 μM) | + (+indicates value greater than 10 μM) | + (+indicates value greater than 10 μM) | ++ (++ indicates value between 1 μM and 10 μM) | ++ (++ indicates value between 1 μM and 10 μM) | + (+indicates value greater than 10 μM)
10 | Cc1csc2nc(C(=O)NCc3ccc(Cl)c(Cl)c3)c(O)c(=O)n12 |  |  | +++ (+++ indicates value between 0.001 μM and 1 μM) | + (+indicates value greater than 10 μM) | + (+indicates value greater than 10 μM) | + (+indicates value greater than 10 μM) | +++ (+++ indicates value between 0.001 μM and 1 μM) | +++ (+++ indicates value between 0.001 μM and 1 μM) | + (+indicates value greater than 10 μM)
11 | CC(C)c1cn2c(=O)c(O)c(C(=O)NCc3ccc(Cl)c(Cl)c3)nc2s1 |  |  | +++ (+++ indicates value between 0.001 μM and 1 μM) | + (+indicates value greater than 10 μM) | + (+indicates value greater than 10 μM) | + (+indicates value greater than 10 μM) | +++ (+++ indicates value between 0.001 μM and 1 μM) | +++ (+++ indicates value between 0.001 μM and 1 μM) | ++ (++ indicates value between 1 μM and 10 μM)
